Data: ChEMBL document CHEMBL1201862, “PubChem BioAssay data set” (2004)
Activity calls are given as the source filed them.

Tests used:
Type in all cases: functional
[1] = target: T1, High affinity choline transporter 1 (Homo sapiens, UniProt Q9GZV3); assay: human choline transporter blockers, potency – cell-based, 10-point CRC, membrane potential dye, dose response (AID 588401);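 further: membrane potential dye fluorescence of choline-evoked depolarization via CHT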
T1 sequence (Q9GZV3 whole entry): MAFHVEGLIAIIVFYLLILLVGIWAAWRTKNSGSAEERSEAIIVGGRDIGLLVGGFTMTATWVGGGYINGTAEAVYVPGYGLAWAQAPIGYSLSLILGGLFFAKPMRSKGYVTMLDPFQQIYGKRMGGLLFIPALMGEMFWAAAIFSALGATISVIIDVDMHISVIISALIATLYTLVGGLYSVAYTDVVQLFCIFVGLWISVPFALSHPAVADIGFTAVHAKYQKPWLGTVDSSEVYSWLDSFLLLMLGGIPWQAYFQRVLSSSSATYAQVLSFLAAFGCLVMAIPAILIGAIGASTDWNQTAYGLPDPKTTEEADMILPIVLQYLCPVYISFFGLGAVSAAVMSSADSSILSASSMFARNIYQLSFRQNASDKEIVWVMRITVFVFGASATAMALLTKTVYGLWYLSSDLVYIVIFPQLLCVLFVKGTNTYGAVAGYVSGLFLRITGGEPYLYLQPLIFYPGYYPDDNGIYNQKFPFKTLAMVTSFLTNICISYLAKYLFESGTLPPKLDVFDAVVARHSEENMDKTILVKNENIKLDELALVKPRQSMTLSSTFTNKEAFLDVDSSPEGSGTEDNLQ

[2] = target: T1, High affinity choline transporter 1; assay: human choline transporter blockers, potency – cell-based, 5-point CRC, membrane potential dye, dose response (AID 504840)
[3] = target: Melanin-concentrating hormone receptor 1 (Homo sapiens, UniProt Q99705); assay: Late-stage fluorescence-based counterscreen for antagonists of the G-protein coupled receptor 7 (GPR7): cell-based dose response assay to identify antagonists of the melanin-concentrating hormone receptor 1 (MCHR1) Set 6.
[4] = target: T2, Neuropeptides B/W receptor type 1 (Homo sapiens, UniProt P48145); assay: human NPBW1 receptor blockade, IC50 – cell-based, fluorescence, dose response, set 6, late-stage follow-up (AID 588583)
T2 sequence (P48145 whole entry): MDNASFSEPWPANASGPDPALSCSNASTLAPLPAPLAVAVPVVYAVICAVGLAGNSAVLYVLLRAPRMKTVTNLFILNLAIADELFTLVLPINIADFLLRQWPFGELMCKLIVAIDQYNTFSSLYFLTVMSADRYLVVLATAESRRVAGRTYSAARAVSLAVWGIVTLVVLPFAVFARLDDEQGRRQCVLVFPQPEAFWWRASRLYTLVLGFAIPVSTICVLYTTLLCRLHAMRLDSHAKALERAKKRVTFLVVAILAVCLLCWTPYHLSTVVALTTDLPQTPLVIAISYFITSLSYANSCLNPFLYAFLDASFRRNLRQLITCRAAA

[5] = THP-1 cell cytotoxicity, cytotoxicity control, set 5 (AID 588443)
[6] = target: Multidrug resistance protein CDR2 (Candida albicans (strain SC5314 / ATCC MYA-2876) (Yeast), UniProt P78595); assay: inhibition of Nile Red efflux via Candida CDR2 – S. cerevisiae AD1-8u, singleplex, Cherry Pick1 hits, dose response (AID 588604)
Multidrug resistance protein CDR2, sequence (P78595 whole entry): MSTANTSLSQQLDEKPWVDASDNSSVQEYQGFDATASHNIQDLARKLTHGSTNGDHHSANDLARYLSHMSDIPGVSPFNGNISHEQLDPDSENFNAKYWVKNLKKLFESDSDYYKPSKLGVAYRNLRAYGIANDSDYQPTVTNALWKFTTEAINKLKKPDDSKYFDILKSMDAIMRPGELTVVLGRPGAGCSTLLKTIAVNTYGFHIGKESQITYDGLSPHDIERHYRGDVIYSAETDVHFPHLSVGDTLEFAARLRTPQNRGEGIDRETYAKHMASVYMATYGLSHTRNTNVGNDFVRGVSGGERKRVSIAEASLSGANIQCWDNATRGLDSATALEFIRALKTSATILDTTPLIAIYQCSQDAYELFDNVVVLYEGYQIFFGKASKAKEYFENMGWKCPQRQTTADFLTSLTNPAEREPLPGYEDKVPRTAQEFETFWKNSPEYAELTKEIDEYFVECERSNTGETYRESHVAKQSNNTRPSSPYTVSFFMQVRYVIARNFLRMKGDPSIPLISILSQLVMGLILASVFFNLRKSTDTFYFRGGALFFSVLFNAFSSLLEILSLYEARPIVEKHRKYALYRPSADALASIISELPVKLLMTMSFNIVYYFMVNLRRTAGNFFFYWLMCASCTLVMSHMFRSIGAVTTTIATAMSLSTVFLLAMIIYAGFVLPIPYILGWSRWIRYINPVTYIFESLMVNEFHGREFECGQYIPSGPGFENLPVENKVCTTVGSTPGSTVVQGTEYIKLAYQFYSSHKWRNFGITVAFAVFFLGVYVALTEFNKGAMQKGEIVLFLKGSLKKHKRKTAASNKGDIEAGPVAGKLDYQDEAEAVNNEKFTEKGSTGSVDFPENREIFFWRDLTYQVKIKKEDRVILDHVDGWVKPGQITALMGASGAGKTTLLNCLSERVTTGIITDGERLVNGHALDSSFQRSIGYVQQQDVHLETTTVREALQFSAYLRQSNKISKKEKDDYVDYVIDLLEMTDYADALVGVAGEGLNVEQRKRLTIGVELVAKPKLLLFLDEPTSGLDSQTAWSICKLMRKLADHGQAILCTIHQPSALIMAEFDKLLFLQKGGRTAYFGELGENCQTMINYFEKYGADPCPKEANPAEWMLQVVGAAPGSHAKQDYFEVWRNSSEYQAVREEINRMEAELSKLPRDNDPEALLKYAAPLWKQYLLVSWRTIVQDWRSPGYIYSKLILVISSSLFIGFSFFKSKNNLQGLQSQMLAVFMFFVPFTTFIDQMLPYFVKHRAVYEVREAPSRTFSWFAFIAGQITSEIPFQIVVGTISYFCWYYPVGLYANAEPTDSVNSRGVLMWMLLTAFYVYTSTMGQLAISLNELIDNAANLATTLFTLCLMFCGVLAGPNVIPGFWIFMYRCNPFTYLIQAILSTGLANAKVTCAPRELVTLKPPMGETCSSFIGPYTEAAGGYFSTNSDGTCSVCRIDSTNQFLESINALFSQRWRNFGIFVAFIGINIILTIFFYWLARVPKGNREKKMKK

Melanin-concentrating hormone receptor 1, sequence (Q99705 whole entry): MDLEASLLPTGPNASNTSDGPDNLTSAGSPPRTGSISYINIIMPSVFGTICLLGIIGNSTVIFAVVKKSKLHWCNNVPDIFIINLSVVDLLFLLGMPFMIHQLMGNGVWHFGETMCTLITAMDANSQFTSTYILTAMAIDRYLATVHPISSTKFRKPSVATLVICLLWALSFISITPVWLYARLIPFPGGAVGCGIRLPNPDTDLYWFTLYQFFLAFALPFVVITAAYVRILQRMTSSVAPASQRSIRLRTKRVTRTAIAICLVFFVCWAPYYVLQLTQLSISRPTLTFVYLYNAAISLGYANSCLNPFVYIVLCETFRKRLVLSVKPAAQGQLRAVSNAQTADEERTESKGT

CC(C)CC(=O)N=c1nc(S)ss1
IC50 [1]: 3.98 µM (active)
IC50 [2]: 3.02 µM (active)

N#CC(c1ccc(F)cc1)c1c(Cl)cnn(Cc2cccc3ccccc23)c1=O (stereo unspecified)
IC50 [3]: 0.154 µM (active)
IC50 [4]: 0.154 µM (active)

CC(C)OC(=O)CSc1ncnc2c1cnn2-c1ccccc1
CC50 [5]: > 100 µM (active)

COc1cccc(-c2sc3ccc(OC)cc3c2-c2ccc(OCCN3CCCC3)cc2)c1
EC50 [6]: 10.2 µM (active)
